melting point: 98 °C (dec.)
SMILES: COc1cc2c(cc1OCCCCCC(=O)N1C[C@@H](CCl)c3c1cc(OP(=O)(O)O)c1ccccc31)N(C(=O)OCc1ccc(NC(=O)[C@H](CCCCN)NC(=O)C3(C(=O)NCCCCCN4C(=O)C=CC4=O)CCC3)cc1)C(O)[C@@H]1CCCN1C2=O (stereo partly shown)
